In patent US12084462B2, “Spiro bicyclic inhibitors of menin-MLL interaction” (Janssen Pharmaceutica NV, priority 2016, dated 2024):
Values joined by “and” are separate entries in the source; they are usually repeats but may differ in a detail not shown here. Identical values can stand only once. Like-named read-outs stand apart in the source and are kept apart here.

How the values were obtained:
MV-4-11 = experiment: Proliferation assay (spheroid assay) MV-4-11; type: cell-based, human
Method: (§1) The anti-proliferative effect of menin/MLL protein/protein interaction inhibitor test compounds was assessed in human leukemia cell lines. The cell lines MV-4-11 and MOLM14 harbor MLL translocations and express the MLL fusion proteins MLL-AF4 and MLL-AF9, respectively, as well as the wildtype protein from the second allele. […] K562 and KG1 were used as a control cell lines containing two MLL wildtype alleles in order to exclude compounds that display general cytotoxic effects.
(§2) MV-4-11 and MOLM14 were cultured in RPMI-1640 (Sigma Aldrich) supplemented with 10% fetal bovine serum (HyClone), 2 mM L-glutamine (Sigma Aldrich) and 50 μg/ml gentamycin (Gibco). K562 were propagated in RPMI-1640 (Sigma Aldrich) supplemented with 20% fetal bovine serum (HyClone), 2 mM L-glutamine (Sigma Aldrich) and 50 μg/ml gentamycin (Gibco). KG1 were cultured in Iscove's MDM (Gibco) supplemented with 20% fetal bovine serum (HyClone), 2 mM L-glutamine (Sigma Aldrich) and 50 μg/ml gentamycin (Gibco).
(§3) In order to assess the anti-proliferative effects, 1,500 MV-4-11, 300 MOLM14, 750 K562 or 1,300 KG1 cells were seeded in 200 μl media per well in 96-well round bottom, ultra-low attachment plates (Costar, catalogue number 7007). Cell seeding numbers were chosen based on growth curves to ensure linear growth throughout the experiment. Test compounds were added at different concentrations and the DMSO content was normalized to 0.3%. Cells were incubated for 8 d at 37° C. and 5% CO2. Spheroid like growth was monitored in real-time by live-cell imaging (IncuCyteZOOM, Essenbio, 4× objective) acquiring one image every four hours for 8 d. Confluence (%) as a measure of spheroid size was determined using an integrated analysis tool.
(§4) In order to determine the cumulative effect of the test compounds over time, the area under the curve (AUC) in a plot of confluence against time was calculated. Confluence at the beginning of the experiment (t=0) was used as baseline for the AUC calculation.
(§5) Absolute IC50 values were calculated according to the following procedure: % Control=(AUC sample/AUC control)*100 AUC control=mean AUC of control values (cells without compound/DMSO as vehicle control)
(§6) A non-linear curve fit was applied using the least squares (ordinary) fit method to the plot of % control versus compound concentration. Based on this, the absolute IC50 value (half maximal inhibitory concentration of the test compound causing an anti-proliferative effect of 50% relative to the vehicle control) was calculated.

MOLM14 = experiment: Proliferation assay (spheroid assay) MOLM14; type: cell-based, human
Method: as §1, §2, §3, §4, §5, §6

menin = target: T1, menin (Homo sapiens, UniProt O00255, T541A); experiment: Menin/MLL fluorescence polarization (FP) assay; type: binding
T1 sequence (O00255 with tags, fused parts or gaps T541A): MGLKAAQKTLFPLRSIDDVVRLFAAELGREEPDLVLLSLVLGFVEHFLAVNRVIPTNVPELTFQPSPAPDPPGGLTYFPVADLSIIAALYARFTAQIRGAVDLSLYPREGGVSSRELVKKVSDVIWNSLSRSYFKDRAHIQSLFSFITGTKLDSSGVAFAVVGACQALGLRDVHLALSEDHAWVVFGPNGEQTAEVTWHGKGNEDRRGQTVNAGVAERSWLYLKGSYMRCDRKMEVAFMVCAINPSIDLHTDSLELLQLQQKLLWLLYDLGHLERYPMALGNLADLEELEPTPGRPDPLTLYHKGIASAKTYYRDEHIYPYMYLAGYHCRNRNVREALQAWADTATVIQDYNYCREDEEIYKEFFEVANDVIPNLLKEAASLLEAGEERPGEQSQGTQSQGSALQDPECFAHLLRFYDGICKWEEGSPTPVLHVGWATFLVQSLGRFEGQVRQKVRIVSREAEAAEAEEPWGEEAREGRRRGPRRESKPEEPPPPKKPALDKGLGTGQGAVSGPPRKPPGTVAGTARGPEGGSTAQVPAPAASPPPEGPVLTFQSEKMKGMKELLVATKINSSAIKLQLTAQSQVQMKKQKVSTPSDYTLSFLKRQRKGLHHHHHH
Method: 1) Menin/MLL Fluorescence Polarization Assay
To a non-surface binding, black 384-well microtiter plate was added 50 nL 160× test compound in DMSO and 4 μL 2× menin in assay buffer (40 mM Tris·HCl, pH 7.5, 50 mM NaCl, 1 mM DTT and 0.001% Tween 20). After incubation of test compound and menin for 10 min at ambient temperature, 4 μL 2×FITC-MBM1 peptide (FITC-β-alanine-SARWRFPARPGT-NH2 (SEQ ID NO: 2)) in assay buffer was added, the microtiter plate centrifuged at 1000 rpm for 1 min and the assay mixtures incubated for 15 min at ambient temperature. The relative amount of menin·FITC-MBM1 complex present in an assay mixture is determined by measuring the fluorescence polarization (FP) of the FITC label with a BMG Pherastar plate reader (ex. 485 nm/em. 520 nm) at ambient temperature. The final concentrations of reagents in the binding assay are 100 nM menin, 5 nM FITC-MBM1 peptide and 0.625% DMSO in assay buffer. Dose-response titrations of test compounds are conducted using an 11 point, three-fold serial dilution scheme, starting at 31 μM.
Compound potencies were determined by first calculating % inhibition at each compound concentration according to equation 1: % inhibition=((HC−LC)−(FP^compound−LC))/(HC−LC))*100 (Eqn 1)
Where LC and HC are the FP values of the assay in the presence or absence of a saturating concentration of a compound that competes with FITC-MBM1 for binding to menin, and FP^compound is the measured FP value in the presence of the test compound. HC and LC FP values represent an average of at least 16 replicates per plate. […] 2) Proliferation Assay

[1] = Homo sapiens, MV4-11, MV-4-11, averaged values, read-out: Spheroid assay MV-4-11 (IC50 (μM))
[2] = Homo sapiens, MOLM-14, MOLM14, averaged values, read-out: Spheroid assay MOLM14 (IC50 (μM))
[3] = averaged values over all measurements, read-out: Menin FP assay (IC50 (μM))
[4] = MOLM14 (MLL-AF9), 8 d, absolute IC50 from AUC of confluence, individual measurements (not averaged), read-out: (2) Spheroid assay MOLM14 (IC50 (μM))
[5] = 100 nM menin, 5 nM FITC-MBM1 peptide, individual measurements (not averaged), read-out: (1) Menin FP assay (IC50 (μM))

| SMILES | IC50 (MV-4-11; [1]) [µM] | IC50 (MOLM14; [2]) [µM] | IC50 (menin; [3]) [µM] | also measured |
| --- | --- | --- | --- | --- |
| OCCn1cccc1CN1CC2(CCN(c3ncnc4sc(CC(F)(F)F)cc34)C2)C1 [Compound 24] | 9.1 | > 15 | 0.49 | – |
| CC(C1CCOCC1)N1CC2(CCN(c3ncnc4sc(CC(F)(F)F)cc34)C2)C1 (centres unmarked) [Compound 145] | 1.7 | 7.3 | – | – |
| OCc1ccccc1CN1CC2(CCN(c3ncnc4sc(CC(F)(F)F)cc34)C2)C1 [Compound 57] | 4.2 | 8.6 | – | – |
| Cn1cc2c(n1)CCCC2N1CC2(CCN(c3ncnc4sc(CC(F)(F)F)cc34)C2)C1 (centres unmarked) [Compound 133] | 2.1 | > 15 | 0.12 | – |
| FC(F)(F)Cc1cc2c(N3CCC4(CN(Cc5cnc(Cl)cn5)C4)C3)ncnc2s1 [Compound 8] | – | – | 0.79 | – |
| O=C([C@@H]1CC(F)(F)CN1)N1CC2(C1)CN(c1ncnc3sc(CC(F)(F)F)cc13)C2 [Compound 90] | 11.1 | > 15 | 0.11 | – |
| FC(F)(F)Cc1cc2c(N3CC4(CC(OCc5ccccc5)C4)C3)ncnc2s1 [Compound 26] | 10.4 | > 15 | 0.16 | – |
| O=C([C@@H]1C[C@@H](F)CN1)N1CC2(C1)CN(c1ncnc3sc(CC(F)(F)F)cc13)C2 [Compound 89] | 1.3 | 10.5 | 0.045 | – |
| CC(C)[C@@H](C1CNC1)N1CC2(CCN(c3ncnc4sc(CC(F)(F)F)cc34)C2)C1 [Compound 200] | 3.4 | 10.3 | 0.11 | – |
| C[C@H](c1cnn(C)c1)N1CC2(CCN(c3ncnc4sc(CC(F)(F)F)cc34)C2)C1 [Compound 198] | 5.1 | 12.4 | 0.14 | – |
| Cc1ccc(CN2CC[C@]3(CCN(c4ncnc5sc(CC(F)(F)F)cc45)C3)C2)cc1 (single isomer, unassigned) [Compound 290] | 0.47 | 1.2 | – | – |
| CC(C)n1cc(CN2CC3(CCN(c4ncnc5sc(CC(F)(F)F)cc45)C3)C2)cn1 [Compound 36] | – | – | 0.4 | – |
| O=C(NCCO)C(c1ccccc1)N1CC2(CCN(c3ncnc4sc(CC(F)(F)F)cc34)C2)C1 (centres unmarked) [Compound 75] | – | – | 2.36 | – |
| FC(F)(F)Cc1cc2c(N3CCC4(CN(Cc5cn[nH]c5)C4)C3)ncnc2s1 [Compound 29] | – | – | – | IC50 (MV-4-11; MV-4-11 (MLL-AF4), 8 d, absolute IC50 from AUC of confluence, individual measurements (not averaged), read-out: (2) Spheroid assay MV-4-11 (IC50 (μM))): 1.8 µM and > 15 µM and 9.9 µM; IC50 (MOLM14; Homo sapiens, MOLM-14, 192 h, MOLM14 (MLL-AF9), 8 d, absolute IC50 from AUC of confluence, individual measurements (not averaged), read-out: (2) Spheroid assay MOLM14 (IC50 (μM))): 10.8 µM; IC50 (MOLM14; [4]): > 15 µM; IC50 (menin; [5]): 0.346 µM |
| FC(F)(F)Cc1cc2c(N3CCC4(CN(Cc5ccc[nH]5)C4)C3)ncnc2s1 [Compound 25] | 3.8 | 7.2 | 0.31 | – |
| Cc1ccc(CN2CC[C@@]3(CCN(c4ncnc5sc(CC(F)(F)F)cc45)C3)C2)cc1 (single isomer, unassigned) [Compound 289] | 0.21 | 1.3 | – | – |
| FC(F)(F)Cc1cc2c(N3CCC4(CN(Cc5ccncn5)C4)C3)ncnc2s1 [Compound 9] | – | – | 0.84 | – |
| Cn1ccc(CN2CC3(CCN(c4ncnc5sc(CC(F)(F)F)cc45)C3)C2)n1 [Compound 35] | – | – | 0.99 | – |
| [CH3][Ge]([CH3])([CH3])[CH2]N1CC2(CCN(c3ncnc4sc(CC(F)(F)F)cc34)C2)C1 [Compound 31] | – | – | 0.087 | – |

| SMILES | IC50 (MV-4-11; [1]) [µM] | IC50 (MOLM14; [2]) [µM] | IC50 (menin; [3]) [µM] | also measured |
| --- | --- | --- | --- | --- |
| FC(F)(F)Cc1cc2c(N3CC4(CN(Cc5cc[nH]n5)C4)C3)ncnc2s1 [Compound 41] | – | – | 0.63 | – |
| FC(F)(F)Cc1cc2c(N3CCC4(CN(Cc5cncc(Cl)n5)C4)C3)ncnc2s1 [Compound 11] | – | – | 0.76 | – |
| Cn1cc([C@@H](C2CCNCC2)N2CC3(CCN(c4ncnc5sc(CC(F)(F)F)cc45)C3)C2)cn1 [Compound 201] | 12.7 | > 15 | – | – |
| FC(F)(F)Cc1cc2c(N3CCC4(CN(Cc5cncnc5)C4)C3)ncnc2s1 [Compound 10] | – | – | 2.31 | – |
| FC(F)(F)Cc1cc2c(N3CCC4(CN(Cc5ccnnc5)C4)C3)ncnc2s1 [Compound 4] | – | – | 0.73 | – |
| CC(C)NCCNC(=O)C(c1ccccc1)N1CC2(CCN(c3ncnc4sc(CC(F)(F)F)cc34)C2)C1 (centres unmarked) [Compound 74] | 2 | 6.1 | 0.12 | – |
| Cn1cc(CN2CC[C@@]3(CCN(c4ncnc5sc(CC(F)(F)F)cc45)C3)C2)cn1 (single isomer, unassigned) [Compound 295] | 1.16 | 6.7 | – | – |
| Cn1cncc1CN1CC2(CCN(c3ncnc4sc(CC(F)(F)F)cc34)C2)C1 [Compound 23] | – | – | 0.95 | – |
| FC(F)(F)Cc1cc2c(N3CCC4(CN(Cc5cnc6ccccn56)C4)C3)ncnc2s1 [Compound 7] | – | – | 0.73 | – |
| CC(C)CN1CC2(C1)CN(c1ncnc3sc(CC(F)(F)F)cc13)C2 [Compound 44] | 4.1 | > 15 | – | – |
| C[C@@H](c1cnn(C)c1)N1CC2(CCN(c3ncnc4sc(CC(F)(F)F)cc34)C2)C1 [Compound 199] | 12.9 | > 15 | 0.41 | – |
| FC(F)(F)Cc1cc2c(N3CC4(CN(Cc5cn[nH]c5)C4)C3)ncnc2s1 [Compound 40] | – | – | 0.84 | – |
| Cn1ccc(CN2CC3(C2)CN(c2ncnc4sc(CC(F)(F)F)cc24)C3)n1 [Compound 34] | – | – | 0.72 | – |
| Cn1cc(C(CN)N2CC3(CCN(c4ncnc5sc(CC(F)(F)F)cc45)C3)C2)cn1 (centres unmarked) [Compound 195] | – | – | 1.07 | – |
| NCCCOc1cccc(CN2CC3(CCN(c4ncnc5sc(CC(F)(F)F)cc45)C3)C2)c1 [Compound 37] | 1.5 | 3.1 | 0.17 | – |
| CCN1CC(C(C(C)C)N2CC3(CCN(c4ncnc5sc(CC(F)(F)F)cc45)C3)C2)C1 (centres unmarked) [Compound 303] | 0.32 | 1.02 | – | – |
| Cn1cc(CN2CC3(C2)CN(c2ncnc4sc(CC(F)(F)F)cc24)C3)cn1 [Compound 28] | – | – | – | IC50 (MOLM14; [4]): 3.2 µM and > 15 µM; IC50 (menin; [5]): 0.517 µM |
| Cc1nc(N2CCCC3(CCN(Cc4ccccc4)C3)C2)c2cc(CC(F)(F)F)sc2n1 (centres unmarked) [Compound 19] | – | – | 0.81 | – |
